Our source for the IC50 values is ChEMBL document CHEMBL1201862, “PubChem BioAssay data set” (2004).

The structures appear in SMILES notation. The source made the active and inactive calls. How the calls were made is not given here.

In assay [1] the target is T1, High affinity choline transporter 1 (Homo sapiens, UniProt Q9GZV3).
T1 sequence (Q9GZV3 whole entry): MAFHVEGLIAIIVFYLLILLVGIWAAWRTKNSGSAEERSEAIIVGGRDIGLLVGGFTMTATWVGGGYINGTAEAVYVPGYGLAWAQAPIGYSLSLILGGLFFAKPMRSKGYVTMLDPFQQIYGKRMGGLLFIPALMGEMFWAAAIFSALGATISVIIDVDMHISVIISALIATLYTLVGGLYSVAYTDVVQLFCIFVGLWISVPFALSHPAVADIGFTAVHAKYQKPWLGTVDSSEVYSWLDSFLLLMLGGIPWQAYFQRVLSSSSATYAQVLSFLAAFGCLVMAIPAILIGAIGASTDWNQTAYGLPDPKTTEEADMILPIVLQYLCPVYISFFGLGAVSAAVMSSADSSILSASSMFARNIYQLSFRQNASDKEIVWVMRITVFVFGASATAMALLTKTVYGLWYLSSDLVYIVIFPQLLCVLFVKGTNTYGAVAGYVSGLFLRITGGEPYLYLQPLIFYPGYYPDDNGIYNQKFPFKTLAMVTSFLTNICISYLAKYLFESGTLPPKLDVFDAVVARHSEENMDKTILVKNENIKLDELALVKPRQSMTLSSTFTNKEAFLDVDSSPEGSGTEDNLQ
The experiment in a line: human choline transporter blockers, potency – cell-based, 5-point CRC, membrane potential dye, dose response (AID 504840). The class given is functional.

The target in assay [2] is T1, High affinity choline transporter 1. As to the kind of experiment: human choline transporter blockers, potency – cell-based, 10-point CRC, membrane potential dye, dose response (AID 588401).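 Further: membrane potential dye fluorescence of choline-evoked depolarization via CHT.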 In kind it is functional.

The IC50 is the point on the concentration scale where inhibition reaches its midpoint. On to `C=CCc1ccc(O)c(-c2cc(CC=C)ccc2O)c1` [MAGNOLOL], for which the IC50 in assay [1] was 2890 nM (active); in assay [2], 1700 nM (active).
